The results in this text go back to ChEMBL document CHEMBL3576836, “Bioactive Metabolites from the Fruits of Psoralea corylifolia” (J Nat Prod, 2015).

One experiment deals with A549. Nature of the experiment: Cytotoxicity against human A549 cells after 48 hrs by MTT assay. The format is functional, cell-based. Conditions: A549, 48 h. (Tetrazolium assays rely on reduction of a dye to a coloured formazan, in cell work by metabolically active cells.)
For experiment [1], the target named is T1, NAD-dependent protein deacetylase sirtuin-1 (Homo sapiens) (UniProt Q96EB6).
T1 sequence (whole entry): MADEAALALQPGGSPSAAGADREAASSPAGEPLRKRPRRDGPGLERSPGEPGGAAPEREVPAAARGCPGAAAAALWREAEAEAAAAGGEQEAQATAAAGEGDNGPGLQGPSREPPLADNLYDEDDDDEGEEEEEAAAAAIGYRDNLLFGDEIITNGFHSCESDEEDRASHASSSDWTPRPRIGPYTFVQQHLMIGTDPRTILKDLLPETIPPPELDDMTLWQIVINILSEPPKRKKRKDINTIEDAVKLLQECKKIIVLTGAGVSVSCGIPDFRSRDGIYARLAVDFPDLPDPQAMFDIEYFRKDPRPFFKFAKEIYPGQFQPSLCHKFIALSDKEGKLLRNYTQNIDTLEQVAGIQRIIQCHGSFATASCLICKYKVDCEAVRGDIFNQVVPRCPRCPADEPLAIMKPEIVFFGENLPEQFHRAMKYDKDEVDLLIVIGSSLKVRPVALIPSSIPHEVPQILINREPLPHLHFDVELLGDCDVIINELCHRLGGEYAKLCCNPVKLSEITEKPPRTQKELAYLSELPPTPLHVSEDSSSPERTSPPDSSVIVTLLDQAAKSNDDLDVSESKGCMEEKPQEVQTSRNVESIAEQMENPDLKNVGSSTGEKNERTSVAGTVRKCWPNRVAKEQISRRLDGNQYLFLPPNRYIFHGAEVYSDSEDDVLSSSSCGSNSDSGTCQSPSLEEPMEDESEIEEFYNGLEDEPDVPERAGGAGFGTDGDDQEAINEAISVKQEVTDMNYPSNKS
The experiment in a line: Increase in SIRT1 (unknown origin) deacetylation activity at 10 uM.

A further experiment deals with K562. Nature of the experiment: Cytotoxicity against human K562 cells after 48 hrs by MTT assay. Particulars: K562, 48 h. The format is functional, cell-based.
Experiment [2] is described as follows: Inhibition of Streptococcus mutans OMZ65 recombinant sortase A delta-40 mutant using Dabcyl-QALPETGEE-Edans as substrate after 1 hr by fluorescence spectrophotometry.
Experiment [3] addresses T1, NAD-dependent protein deacetylase sirtuin-1 (Homo sapiens). Nature of the experiment: Stimulation of SIRT1 (unknown origin) expressed in HEK293 cells coexpressing p53-Luc assessed as decrease in p53 transcriptional activity. The format is cell-based.
Experiment [4] shares this target. Nature of the experiment: Increase in SIRT1 (unknown origin) deacetylation activity.
The target is the same in experiment [5]. Nature of the experiment: Stimulation of SIRT1 (unknown origin) expressed in HEK293 cells assessed as increase in intracellular NAD+/NADH ratio. The format is cell-based.

Calls of active or inactive are those of the source. The calls are words filed in the database; no cut-off is given here. Where only a bound is given, the exact number is not on record here.

As to `CC(C)(O)[C@@H]1Cc2cc3c(cc2O1)O[C@H](c1ccc(O)cc1)CC3=O`, the IC50 with A549 and in the experiment with K562 was more than 10 µM each time. Moreover, in experiment [1], the result was inactive.

Regarding `C=C[C@@](C)(/C=C/c1ccc(O)cc1)CCC1OC1(C)C` (stereo not given in full), the half-inhibitory concentration (IC50) with A549 and with K562 was more than 10 µM throughout. The result in experiment [1] was inactive.

As for `CC(C)=CCc1cc(-c2coc3cc(O)cc(O)c3c2=O)ccc1O` [CORYLIN], the half-maximal inhibitory concentration (IC50) is more than 10 µM in the experiment with A549, more than 10 µM with K562 and 272 µM in experiment [2]. Further, the result in experiment [1] was inactive.

`CC(C)(O)c1cc2c3c(ccc2o1)C(=O)C[C@@H](c1ccc(O)cc1)O3`: the Activity result in experiment [3], in experiment [4] and in experiment [5] was “Dose-dependent effect” throughout. In addition, the concentration for half-maximal inhibition (IC50) was more than 10 µM in the experiment on A549, more than 10 µM in the experiment on K562 and 135 µM in experiment [2]. In addition, the result in experiment [1] was Active.

Turning to `C=C[C@@](C)(/C=C/c1ccc(O)cc1)CC[C@@H](O)C(C)(C)O`, the IC50 in the experiment with A549 and in the experiment with K562 was more than 10 µM throughout. Further, in experiment [1], the result was inactive.

As to `C=C(C)[C@H]1Cc2c(ccc3c2O/C(=C\c2ccc(O)c(O)c2)C3=O)O1`, the IC50 with A549 and in the experiment on K562 was more than 10 µM in each case. For the same compound, the outcome in experiment [1] was inactive.

Consider `CC(C)(O)[C@H]1Oc2cc3oc4c5ccc(O)cc5oc(=O)c4c3cc2[C@@H]1O`, for which the values for the IC50 (with A549; in the experiment with K562; in experiment [2]) were more than 10 µM, more than 10 µM and 119 µM, respectively. Also, the result in experiment [1] was inactive.

For the compound `COc1cc2oc(-c3ccc(O)cc3)cc(=O)c2cc1CC=C(C)C` [BAVACHININ], the IC50 in the experiment with A549 and with K562 was more than 10 µM each time. The outcome in experiment [1] was inactive.

Take `CC(C)=CCc1cc(C(=O)/C=C/c2ccc(O)cc2)c(O)cc1O` [BROUSSOCHALCONE B]: the concentration for half-maximal inhibition (IC50) in the experiment with A549 and in the experiment with K562 was more than 10 µM each time. In experiment [1], the outcome was inactive.

As to `C=C(C)[C@@H]1Cc2cc3c(cc2O1)O[C@H](c1ccc(O)cc1)CC3=O`, the IC50 in the experiment with A549 and in the experiment with K562 was more than 10 µM throughout. The result in experiment [1] was inactive.

On to `CC1(C)Oc2ccc(-c3coc4cc(O)ccc4c3=O)cc2[C@@H](O)[C@@H]1O`, for which the half-maximal inhibitory concentration (IC50) with A549 and with K562 was more than 10 µM throughout. The outcome in experiment [1] was inactive.

Turning to `CC(C)=CCc1cc(-c2coc3cc(O)ccc3c2=O)ccc1O` [NEOBAVAISOFLAVONE], the IC50 in the experiment with A549 is more than 10 µM; with K562, more than 10 µM; in experiment [2], 284 µM. In experiment [1], the outcome was inactive.

On to Para-Hydroxymercuribenzoic acid, for which the IC50 in experiment [2] came to 118 µM.

For the compound `CC(C)(O)[C@H]1Cc2c(ccc3c2O/C(=C\c2ccc(O)c(O)c2)C3=O)O1`, the Activity entry in experiment [3], in experiment [4] and in experiment [5] was “Dose-dependent effect” in each case. The IC50 in the experiment on A549 was more than 10 µM; with K562 it was more than 10 µM; in experiment [2] it was 209 µM. Also, the outcome in experiment [1] was Active.

In the case of `CC(C)(O)[C@@H]1Oc2ccc(-c3coc4cc(O)ccc4c3=O)cc2[C@H]1O`, the Activity result in experiment [3], in experiment [4] and in experiment [5] was “Dose-dependent effect” in each case. In addition, the IC50 with A549 and in the experiment on K562 was more than 10 µM each time. In experiment [1], the result was Active.

On to `C=C[C@@](C)(/C=C/c1ccc(O)cc1)CCC(=O)C(=C)C`, for which the half-maximal inhibitory concentration (IC50) in the experiment with A549 and in the experiment on K562 was more than 10 µM throughout. In experiment [1], the outcome was inactive.

Consider `O=c1ccc2ccc3occc3c2o1` [ANGELICIN], for which the IC50 in the experiment with A549 and in the experiment on K562 was more than 10 µM each time. The outcome in experiment [1] was inactive.

With `CC(C)=CCc1cc2c(cc1O)O[C@H](c1ccc(O)cc1)CC2=O` [BAVACHIN], the IC50 with A549 and in the experiment on K562 was more than 10 µM in each case. In experiment [1], the outcome was inactive.

Turning to `O=Cc1ccc(O)c(O)c1` [PROTOCATECHUALDEHYDE], the values for the IC50 (in the experiment with A549; in the experiment on K562; in experiment [2]) were more than 10 µM, more than 10 µM and 514 µM, respectively. Moreover, the result in experiment [1] was inactive.

For `O=c1ccc2cc3ccoc3cc2o1` [PSORALEN], the IC50 is more than 10 µM with A549, more than 10 µM in the experiment on K562 and 330 µM in experiment [2]. Also, the result in experiment [1] was inactive.

With `O=Cc1ccc(O)cc1` [4-HYDROXYBENZALDEHYDE], the IC50 in the experiment with A549 and in the experiment with K562 was more than 10 µM each time. Besides, the outcome in experiment [1] was inactive.

`CC1(C)Oc2ccc(-c3coc4cc(O)ccc4c3=O)cc2C[C@@H]1O`: the IC50 with A549 was more than 10 µM; with K562, more than 10 µM; in experiment [2], 236 µM. Also, in experiment [1], the result was inactive.

Regarding `C=C(C)[C@@H]1Cc2cc3c(cc2O1)oc1c2ccc(O)cc2oc(=O)c31`, the 50% inhibitory concentration (IC50) in the experiment on A549 and in the experiment on K562 was more than 10 µM throughout. Moreover, the result in experiment [1] was inactive.

For the compound `CC(C)=CCc1c(O)ccc(C(=O)/C=C/c2ccc(O)cc2)c1O` [ISOBAVACHALCONE], the IC50 with A549 and in the experiment with K562 was more than 10 µM throughout. Besides, the result in experiment [1] was inactive.

For `Oc1ccc(O)cc1` [HYDROQUINONE], the IC50 with A549 and in the experiment with K562 was more than 10 µM in each case. The result in experiment [1] was inactive.

In the case of `C=C[C@@](C)(/C=C/c1ccc(O)cc1)C/C=C/C(C)(C)O`, the IC50 in the experiment on A549 and in the experiment with K562 was more than 10 µM throughout. Also, the outcome in experiment [1] was inactive.

Consider `CC1(C)Oc2ccc(-c3coc4cc(O)ccc4c3=O)cc2[C@H](O)[C@@H]1O`, for which the IC50 in the experiment on A549 and in the experiment with K562 was more than 10 µM in each case. Moreover, in experiment [1], the result was inactive.

In the case of `CC(C)(O)[C@@H]1Cc2cc3c(cc2O1)oc1c2ccc(O)cc2oc(=O)c31`, the IC50 is more than 10 µM in the experiment on A549, more than 10 µM in the experiment with K562 and 138 µM in experiment [2]. In experiment [1], the outcome was inactive.

Usually IC50 stands for the midpoint of a concentration-inhibition curve.
